Test results: ChEMBL document CHEMBL4229346, “New insights in the structure-activity relationships of 2-phenylamino-substituted benzothiopyrano[4,3-d]pyrimidines as kinase inhibitors” (Eur J Med Chem, 2018)

Key:
[1] = Growth inhibition of HUVEC after 72 hrs by trypan blue assay; type: cell-based; details: human, HUVEC cells
[2] = test system: HeLa; assay: Growth inhibition of human HeLa cells after 72 hrs by trypan blue assay; type: functional
[3] = test system: A-431; assay: Growth inhibition of human A431 cells after 72 hrs by trypan blue assay; type: functional; details: A-431, 72 h
[4] = test system: MSTO-211H; assay: Growth inhibition of human MSTO-211H cells after 72 hrs by trypan blue assay; type: functional
[5] = biological target: Vascular endothelial growth factor receptor 2 (Homo sapiens, UniProt P35968); assay: Inhibition of recombinant human His-tagged KDR cytoplasmic domain (789 to 1356 residues) expressed in baculovirus expression system using Z'-LYTE-Tyr1 as substrate measured after 1 hr by Z'-LYTE assay
[6] = biological target: Proto-oncogene tyrosine-protein kinase Src (Homo sapiens) (UniProt P12931); assay: Inhibition of recombinant human Src at 10^-5 M using Ulight-Poly GAT[EAY(1:1:1)]n as substrate measured after 10 mins by LANCE assay relative to control
[7] = biological target: RAF proto-oncogene serine/threonine-protein kinase (Homo sapiens) (UniProt P04049); assay: Inhibition of recombinant human RAF1 at 10^-5 M relative to control
[8] = biological target: T1, Aurora kinase A (Homo sapiens) (UniProt O14965); assay: Inhibition of recombinant human Aurora-A at 10^-5 M using Ulight-RRRSLLE as substrate measured after 15 mins by LANCE assay relative to control
T1 sequence (whole entry): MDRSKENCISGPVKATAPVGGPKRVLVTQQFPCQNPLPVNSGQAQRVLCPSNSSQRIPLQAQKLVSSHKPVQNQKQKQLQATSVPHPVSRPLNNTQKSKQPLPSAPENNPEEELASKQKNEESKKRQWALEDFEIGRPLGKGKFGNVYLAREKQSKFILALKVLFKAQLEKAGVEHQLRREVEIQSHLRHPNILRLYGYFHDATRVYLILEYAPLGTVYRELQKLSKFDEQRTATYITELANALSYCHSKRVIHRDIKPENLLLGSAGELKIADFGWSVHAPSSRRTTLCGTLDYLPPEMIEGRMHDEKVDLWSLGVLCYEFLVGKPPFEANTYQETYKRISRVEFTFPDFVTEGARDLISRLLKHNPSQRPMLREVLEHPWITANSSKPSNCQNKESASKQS

[9] = biological target: Cyclin-dependent kinase 1/cyclin B1 (Homo sapiens) (UniProt P06493+P14635); assay: Inhibition of recombinant human CDK1/Cyclin B at 10^-5 M using Ulight-CFFKNIVTPRTPPPSQGK-amide as substrate measured after 15 mins by LANCE assay relative to control; type: protein-complex assay
[10] = biological target: Epidermal growth factor receptor (Homo sapiens) (UniProt P00533); assay: Inhibition of recombinant human EGFR at 10^-5 M using Ulight-CAGAGAIETDKEYYTVKD as substrate measured after 15 mins by LANCE assay relative to control
[11] = biological target: Platelet-derived growth factor receptor beta (Homo sapiens) (UniProt P09619); assay: Inhibition of recombinant human PDGFRbeta at 10^-5 M using Ulight-Poly GAT[EAY(1:1:1)]n as substrate measured after 30 mins by LANCE assay relative to control
Sequence of Platelet-derived growth factor receptor beta (Homo sapiens) (P09619 whole entry): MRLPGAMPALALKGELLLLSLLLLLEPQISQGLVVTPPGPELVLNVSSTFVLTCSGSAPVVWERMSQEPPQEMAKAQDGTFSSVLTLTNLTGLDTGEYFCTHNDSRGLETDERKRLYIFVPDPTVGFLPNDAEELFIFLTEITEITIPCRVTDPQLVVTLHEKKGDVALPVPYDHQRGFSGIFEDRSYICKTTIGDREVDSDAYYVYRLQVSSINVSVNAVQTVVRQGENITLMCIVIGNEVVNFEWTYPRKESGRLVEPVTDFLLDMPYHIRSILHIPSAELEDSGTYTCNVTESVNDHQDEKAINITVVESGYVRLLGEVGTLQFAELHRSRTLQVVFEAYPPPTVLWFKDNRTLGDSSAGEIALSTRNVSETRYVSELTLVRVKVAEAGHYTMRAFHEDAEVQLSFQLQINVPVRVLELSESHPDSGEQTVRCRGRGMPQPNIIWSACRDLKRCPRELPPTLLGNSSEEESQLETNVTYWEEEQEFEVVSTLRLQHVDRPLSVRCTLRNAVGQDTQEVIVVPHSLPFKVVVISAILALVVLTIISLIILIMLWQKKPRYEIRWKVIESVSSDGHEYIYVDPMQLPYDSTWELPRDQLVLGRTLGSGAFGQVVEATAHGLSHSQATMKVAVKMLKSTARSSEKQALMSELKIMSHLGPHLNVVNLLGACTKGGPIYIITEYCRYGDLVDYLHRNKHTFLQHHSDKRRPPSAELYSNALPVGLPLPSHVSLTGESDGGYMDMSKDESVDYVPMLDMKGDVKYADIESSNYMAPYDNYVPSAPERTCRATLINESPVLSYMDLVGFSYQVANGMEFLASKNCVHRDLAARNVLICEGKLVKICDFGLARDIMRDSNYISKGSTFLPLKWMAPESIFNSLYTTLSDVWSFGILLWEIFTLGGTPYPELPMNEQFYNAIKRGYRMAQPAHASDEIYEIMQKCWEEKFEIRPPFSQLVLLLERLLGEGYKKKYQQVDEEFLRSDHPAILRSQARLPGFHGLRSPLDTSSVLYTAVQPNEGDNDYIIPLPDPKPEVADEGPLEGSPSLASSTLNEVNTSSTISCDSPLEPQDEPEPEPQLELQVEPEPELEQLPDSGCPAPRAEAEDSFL

Sequence of RAF proto-oncogene serine/threonine-protein kinase (Homo sapiens) (P04049 whole entry): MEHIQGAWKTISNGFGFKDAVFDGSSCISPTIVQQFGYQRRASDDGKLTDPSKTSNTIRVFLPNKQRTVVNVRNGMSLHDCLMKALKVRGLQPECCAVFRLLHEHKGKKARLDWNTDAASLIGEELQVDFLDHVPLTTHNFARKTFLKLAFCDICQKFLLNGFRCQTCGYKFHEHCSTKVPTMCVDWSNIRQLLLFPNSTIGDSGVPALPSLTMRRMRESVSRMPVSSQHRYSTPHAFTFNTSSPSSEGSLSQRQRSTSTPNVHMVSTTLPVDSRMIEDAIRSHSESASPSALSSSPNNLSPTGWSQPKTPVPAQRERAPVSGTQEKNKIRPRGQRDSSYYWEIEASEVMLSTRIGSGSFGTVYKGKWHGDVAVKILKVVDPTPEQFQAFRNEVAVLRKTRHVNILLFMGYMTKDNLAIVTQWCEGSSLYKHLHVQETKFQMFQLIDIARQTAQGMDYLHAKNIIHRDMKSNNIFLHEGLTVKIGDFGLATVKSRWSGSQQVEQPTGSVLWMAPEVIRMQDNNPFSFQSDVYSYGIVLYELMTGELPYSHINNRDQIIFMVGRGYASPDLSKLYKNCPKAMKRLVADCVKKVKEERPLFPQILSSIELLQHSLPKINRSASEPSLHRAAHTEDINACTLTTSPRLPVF
Sequence of Proto-oncogene tyrosine-protein kinase Src (Homo sapiens) (P12931 2-536 limits assumed): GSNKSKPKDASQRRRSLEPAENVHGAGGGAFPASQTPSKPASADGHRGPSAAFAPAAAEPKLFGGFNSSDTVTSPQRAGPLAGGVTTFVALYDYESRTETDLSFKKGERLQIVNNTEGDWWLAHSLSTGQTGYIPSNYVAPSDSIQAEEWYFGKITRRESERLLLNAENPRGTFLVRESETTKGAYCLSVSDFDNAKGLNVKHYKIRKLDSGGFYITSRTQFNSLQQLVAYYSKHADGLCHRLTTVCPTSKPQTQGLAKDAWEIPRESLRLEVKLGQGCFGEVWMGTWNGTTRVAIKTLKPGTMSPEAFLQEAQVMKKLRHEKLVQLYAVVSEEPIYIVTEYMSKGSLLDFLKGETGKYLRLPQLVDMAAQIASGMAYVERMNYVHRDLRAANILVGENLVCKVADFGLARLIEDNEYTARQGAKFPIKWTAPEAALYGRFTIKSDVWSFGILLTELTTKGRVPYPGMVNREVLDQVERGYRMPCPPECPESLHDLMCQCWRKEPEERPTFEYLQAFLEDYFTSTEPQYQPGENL
Sequence of Vascular endothelial growth factor receptor 2 (P35968 whole entry, the tested form may be a part): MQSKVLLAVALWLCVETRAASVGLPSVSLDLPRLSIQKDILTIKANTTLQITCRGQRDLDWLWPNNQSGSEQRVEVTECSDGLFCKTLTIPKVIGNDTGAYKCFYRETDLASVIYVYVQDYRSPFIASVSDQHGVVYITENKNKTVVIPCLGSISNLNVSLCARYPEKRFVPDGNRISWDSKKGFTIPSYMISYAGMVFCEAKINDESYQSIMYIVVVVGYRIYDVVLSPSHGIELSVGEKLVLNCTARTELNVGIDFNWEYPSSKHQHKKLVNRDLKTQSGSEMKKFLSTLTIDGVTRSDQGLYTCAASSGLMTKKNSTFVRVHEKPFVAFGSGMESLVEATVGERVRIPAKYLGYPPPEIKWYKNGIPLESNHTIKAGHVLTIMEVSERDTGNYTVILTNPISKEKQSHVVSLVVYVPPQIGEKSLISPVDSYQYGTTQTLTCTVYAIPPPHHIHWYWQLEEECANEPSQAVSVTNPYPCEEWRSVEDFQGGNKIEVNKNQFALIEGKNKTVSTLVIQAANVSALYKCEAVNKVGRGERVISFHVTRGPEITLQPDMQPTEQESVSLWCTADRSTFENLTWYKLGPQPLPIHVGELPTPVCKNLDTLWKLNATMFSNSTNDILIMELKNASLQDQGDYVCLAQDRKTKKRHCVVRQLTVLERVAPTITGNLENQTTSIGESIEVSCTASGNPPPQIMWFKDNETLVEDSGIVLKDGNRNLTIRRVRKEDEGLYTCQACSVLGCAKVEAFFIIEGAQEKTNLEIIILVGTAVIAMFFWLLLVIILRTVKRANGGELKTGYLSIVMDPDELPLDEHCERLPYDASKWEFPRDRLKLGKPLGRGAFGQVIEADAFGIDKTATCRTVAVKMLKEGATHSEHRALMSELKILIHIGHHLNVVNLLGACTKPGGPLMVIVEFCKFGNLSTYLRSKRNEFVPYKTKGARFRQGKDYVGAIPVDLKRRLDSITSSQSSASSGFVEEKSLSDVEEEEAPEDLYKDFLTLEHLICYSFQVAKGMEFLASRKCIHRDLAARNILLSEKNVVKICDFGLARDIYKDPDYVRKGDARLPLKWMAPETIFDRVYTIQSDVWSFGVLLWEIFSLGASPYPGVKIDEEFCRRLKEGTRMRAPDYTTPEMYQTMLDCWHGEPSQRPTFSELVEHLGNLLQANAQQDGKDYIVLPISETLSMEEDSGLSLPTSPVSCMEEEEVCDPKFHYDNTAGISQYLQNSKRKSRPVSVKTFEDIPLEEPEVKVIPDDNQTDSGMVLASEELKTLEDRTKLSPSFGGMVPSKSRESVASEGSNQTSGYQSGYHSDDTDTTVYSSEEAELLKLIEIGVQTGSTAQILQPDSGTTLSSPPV
Sequence of Cyclin-dependent kinase 1/cyclin B1 (Homo sapiens) (P06493 whole entry, looked up): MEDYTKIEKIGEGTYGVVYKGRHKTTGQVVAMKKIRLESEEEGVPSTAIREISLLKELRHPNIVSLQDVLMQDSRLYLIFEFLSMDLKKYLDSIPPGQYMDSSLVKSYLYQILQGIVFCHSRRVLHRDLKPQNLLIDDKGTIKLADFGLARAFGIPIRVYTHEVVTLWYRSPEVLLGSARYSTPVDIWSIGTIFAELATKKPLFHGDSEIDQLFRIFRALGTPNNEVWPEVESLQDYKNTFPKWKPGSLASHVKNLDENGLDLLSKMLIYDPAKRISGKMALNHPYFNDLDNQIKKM
Sequence of Cyclin-dependent kinase 1/cyclin B1 (Homo sapiens) (P14635 whole entry, looked up): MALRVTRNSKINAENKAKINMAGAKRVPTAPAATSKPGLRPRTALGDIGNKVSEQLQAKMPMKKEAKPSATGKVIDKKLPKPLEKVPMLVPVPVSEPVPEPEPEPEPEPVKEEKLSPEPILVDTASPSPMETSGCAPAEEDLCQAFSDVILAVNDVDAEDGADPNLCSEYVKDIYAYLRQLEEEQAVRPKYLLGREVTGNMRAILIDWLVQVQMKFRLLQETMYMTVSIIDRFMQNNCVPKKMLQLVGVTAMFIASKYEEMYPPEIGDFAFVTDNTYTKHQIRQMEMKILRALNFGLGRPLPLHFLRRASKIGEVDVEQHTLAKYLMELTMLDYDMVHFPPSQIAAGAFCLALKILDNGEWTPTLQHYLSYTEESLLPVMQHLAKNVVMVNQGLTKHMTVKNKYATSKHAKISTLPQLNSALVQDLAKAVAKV

Structure (SMILES)	GI50 at 72 h [1] [µM]	GI50 [2] [µM]	GI50 [3] [µM]	GI50 [4] [µM]	IC50 [5] [µM]	inhibition [6] [%]	inhibition [7] [%]	inhibition [8] [%]	inhibition [9] [%]	inhibition [10] [%]	inhibition [11] [%]
Fc1cccc(Nc2ncc3c(n2)-c2ccc(Cl)cc2SC3)c1	18.2	20	18.2	> 20							
COc1ccc2c(c1)SCc1cnc(Nc3cc(OC)c(OC)c(OC)c3)nc1-2	3.71	0.63	1.75	0.92							
FC(F)(F)c1cccc(Nc2ncc3c(n2)-c2ccccc2SC3)c1	5.02	> 20	13.5	11.8							
COc1cc(Nc2ncc3c(n2)-c2ccccc2SC3)cc(OC)c1OC	1.99	1.26	1.92	1.08							
COc1ccc(Nc2ncc3c(n2)-c2ccc(Cl)cc2SC3)cc1OC	2.53	3.42	2.23	4.4							
COc1ccc(Nc2ncc3c(n2)-c2ccccc2SC3)cc1OC	1.5	1.5	2.32	1.63	0.11	53	6.1	88.6	47.4	6.5	39.9
COc1ccc2c(c1)SCc1cnc(Nc3cccc(C(F)(F)F)c3)nc1-2	4.55	6.02	6.24	9.04							
COc1cccc(Nc2ncc3c(n2)-c2ccccc2SC3)c1	0.8	6.03	9.43	0.8							
COc1cccc(Nc2ncc3c(n2)-c2ccc(OC)cc2SC3)c1	2.49	2.8	2.1	2.57							
Clc1ccc2c(c1)SCc1cnc(Nc3cccc(Br)c3)nc1-2	7.11	> 20	17	8.5							
Fc1cccc(Nc2ncc3c(n2)-c2ccccc2SC3)c1	4.51	14	9.76	2.06							
COc1ccc2c(c1)SCc1cnc(Nc3cccc(Cl)c3)nc1-2	11.2	11.9	8.25	5.6							
Clc1cccc(Nc2ncc3c(n2)-c2ccc(Cl)cc2SC3)c1	16.5	> 20	> 20	7.78							
Cc1cc(C)c(/C=C2\C(=O)Nc3ccccc32)[nH]1 [SEMAXANIB]		38	37	27							
COc1ccc2c(c1)SCc1cnc(Nc3cccc(Br)c3)nc1-2	1.89	2.93	4.77	2.2							
COc1cccc(Nc2ncc3c(n2)-c2ccc(Cl)cc2SC3)c1	14.2	> 20	16.8	6.83							
COc1cc(Nc2ncc3c(n2)-c2ccc(Cl)cc2SC3)cc(OC)c1OC	2.54	3.46	4.27	3.4							
FC(F)(F)c1cccc(Nc2ncc3c(n2)-c2ccc(Cl)cc2SC3)c1	10.5	> 20	10	3.18							
COc1ccc2c(c1)SCc1cnc(Nc3cccc(F)c3)nc1-2	11.5	10.3	15.5	13							
COc1ccc2c(c1)SCc1cnc(Nc3ccc(OC)c(OC)c3)nc1-2	10.8	18.8	6.06	> 20							
Clc1cccc(Nc2ncc3c(n2)-c2ccccc2SC3)c1	7.13	> 20	10.4	6.1							
Brc1cccc(Nc2ncc3c(n2)-c2ccccc2SC3)c1	7	> 20	10.6	7.67							
